Assay results published in ChEMBL document CHEMBL1201862, “PubChem BioAssay data set” (2004).
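Assay format: 96-well plates, 48-hour exposure. At the GI50, growth is halved.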 The source made the active and inactive calls. No stated cut-off is given here; in the data, active = GI50 up to about 1.1 µM and inactive = higher.

How the values were obtained:
Assay in all cases: inhibition of tumour cell growth, NCI panel, 48 h
[1] = tested on: T47D
[2] = tested on: DU-145
[3] = tested on: COLO 205
[4] = tested on: NCI-H522
[5] = tested on: HCT-116
[6] = tested on: CCRF-CEM
[7] = tested on: SNB-19
[8] = tested on: HT-29
[9] = tested on: ACHN
[10] = tested on: RPMI-8226
[11] = tested on: A498
[12] = tested on: MDA-MB-435
[13] = tested on: KM12
[14] = tested on: MDA-N
[15] = tested on: SK-MEL-2
[16] = tested on: UO-31
[17] = tested on: MDA-MB-231
[18] = tested on: SF-268
[19] = tested on: HOP-62
[20] = tested on: SK-MEL-5
[21] = tested on: OVCAR-4
[22] = tested on: SK-MEL-28
[23] = tested on: SNB-75
[24] = tested on: SN12C
[25] = tested on: LOX IMVI
[26] = tested on: K562
[27] = tested on: SF-539
[28] = tested on: UACC-257
[29] = tested on: 786-0
[30] = tested on: SW-620
[31] = tested on: HCT-15
[32] = tested on: NCI-H23
[33] = tested on: NCI/ADR-RES
[34] = tested on: UACC-62
[35] = tested on: IGROV-1
[36] = tested on: OVCAR-3
[37] = tested on: OVCAR-8
[38] = tested on: HCC 2998
[39] = tested on: HL-60
[40] = tested on: TK-10
[41] = tested on: HOP-92
[42] = tested on: SK-OV-3
[43] = tested on: CAKI-1
[44] = tested on: MCF7
[45] = tested on: SR
[46] = tested on: PC-3
[47] = tested on: Hs-578T
[48] = tested on: U-251
[49] = tested on: SF-295
[50] = tested on: OVCAR-5
[51] = tested on: NCI-H226
[52] = tested on: MOLT-4
[53] = tested on: BT-549
[54] = tested on: M14
[55] = tested on: Malme-3M
[56] = tested on: EKVX
[57] = tested on: NCI-H460
[58] = tested on: A549
[59] = tested on: RXF 393

**Q.** Which results are given for `COc1ccc(-c2nc(N)c(C#N)c3c2CCSc2ccc(C)cc2-3)cc1OC`?
**A.** GI50 [1]: 4.17 µM (inactive); GI50 [2]: 14.8 µM (inactive); GI50 [3]: 5.51 µM (inactive); GI50 [4]: 5.89 µM (inactive); GI50 [5]: 10.8 µM (inactive); GI50 [6]: 4.12 µM (inactive); GI50 [7]: 31.3 µM (inactive); GI50 [8]: 14.2 µM (inactive); GI50 [9]: 19.9 µM (inactive); GI50 [10]: 0.594 µM (active); GI50 [11]: 22.5 µM (inactive); GI50 [12]: 4.61 µM (inactive); GI50 [13]: 6.84 µM (inactive); GI50 [14]: 3.79 µM (inactive); GI50 [15]: 25.4 µM (inactive); GI50 [16]: 4.16 µM (inactive); GI50 [17]: 8.22 µM (inactive); GI50 [18]: 17.2 µM (inactive); GI50 [19]: 42.8 µM (inactive); GI50 [20]: 6.18 µM (inactive); GI50 [21]: 16.7 µM (inactive); GI50 [22]: 39.7 µM (inactive); GI50 [23]: 10.7 µM (inactive); GI50 [24]: 17.3 µM (inactive); GI50 [25]: 14.8 µM (inactive); GI50 [26]: 1.24 µM (inactive); GI50 [27]: 17.1 µM (inactive); GI50 [28]: 13.8 µM (inactive); GI50 [29]: 15 µM (inactive); GI50 [30]: 22.1 µM (inactive); GI50 [31]: 9.4 µM; GI50 [32]: 8.04 µM (inactive); GI50 [33]: 12.3 µM (inactive); GI50 [34]: 10.9 µM (inactive); GI50 [35]: 23.1 µM (inactive); GI50 [36]: 20.7 µM (inactive); GI50 [37]: 22.4 µM (inactive); GI50 [38]: 16.3 µM (inactive); GI50 [39]: 2.89 µM (inactive); GI50 [40]: 26.4 µM (inactive); GI50 [41]: 10.1 µM (inactive); GI50 [42]: 10.9 µM (inactive); GI50 [43]: 19.6 µM (inactive); GI50 [44]: 12.1 µM (inactive); GI50 [45]: 2.6 µM (inactive); GI50 [46]: 8.51 µM (inactive); GI50 [47]: 8.2 µM (inactive); GI50 [48]: 18.1 µM (inactive); GI50 [49]: 6.67 µM (inactive); GI50 [50]: 47.2 µM (inactive); GI50 [51]: 14.8 µM (inactive); GI50 [52]: 3.49 µM (inactive); GI50 [53]: 8.59 µM (inactive); GI50 [54]: 29.1 µM (inactive); GI50 [55]: 20.5 µM (inactive); GI50 [56]: 17.9 µM (inactive); GI50 [57]: 18.5 µM (inactive); GI50 [58]: 12.3 µM (inactive); GI50 [59]: 13.7 µM (inactive)

**Q.** What does the source list for `N#Cc1c(O)n(-c2ccccc2)c(=O)c2c(N)n[nH]c12`?
**A.** GI50 [1]: > 100 µM (inactive); GI50 [2]: > 100 µM (inactive); GI50 [3]: > 100 µM (inactive); GI50 [4]: 69.8 µM (inactive); GI50 [5]: > 100 µM (inactive); GI50 [7]: > 100 µM (inactive); GI50 [8]: > 100 µM (inactive); GI50 [10]: > 100 µM (inactive); GI50 [11]: > 100 µM (inactive); GI50 [12]: > 100 µM (inactive); GI50 [13]: 42.4 µM (inactive); GI50 [14]: > 100 µM (inactive); GI50 [15]: > 100 µM (inactive); GI50 [16]: > 100 µM (inactive); GI50 [17]: > 100 µM (inactive); GI50 [18]: > 100 µM (inactive); GI50 [20]: > 100 µM (inactive); GI50 [21]: > 100 µM (inactive); GI50 [22]: > 100 µM (inactive); GI50 [23]: > 100 µM (inactive); GI50 [24]: > 100 µM (inactive); GI50 [25]: 21.5 µM (inactive); GI50 [26]: 56.4 µM (inactive); GI50 [27]: > 100 µM (inactive); GI50 [28]: > 100 µM (inactive); GI50 [29]: > 100 µM (inactive); GI50 [30]: 64.9 µM (inactive); GI50 [31]: > 100 µM; GI50 [32]: > 100 µM (inactive); GI50 [33]: > 100 µM (inactive); GI50 [34]: 31.3 µM (inactive); GI50 [35]: > 100 µM (inactive); GI50 [36]: > 100 µM (inactive); GI50 [37]: > 100 µM (inactive); GI50 [38]: > 100 µM (inactive); GI50 [39]: > 100 µM (inactive); GI50 [40]: > 100 µM (inactive); GI50 [41]: > 100 µM (inactive); GI50 [42]: > 100 µM (inactive); GI50 [43]: 95.1 µM (inactive); GI50 [44]: > 100 µM (inactive); GI50 [45]: > 100 µM (inactive); GI50 [46]: > 100 µM (inactive); GI50 [47]: > 100 µM (inactive); GI50 [48]: > 100 µM (inactive); GI50 [50]: > 100 µM (inactive); GI50 [51]: > 100 µM (inactive); GI50 [52]: > 100 µM (inactive); GI50 [53]: > 100 µM (inactive); GI50 [54]: > 100 µM (inactive); GI50 [55]: > 100 µM (inactive); GI50 [56]: > 100 µM (inactive); GI50 [57]: > 100 µM (inactive); GI50 [58]: > 100 µM (inactive); GI50 [59]: > 100 µM (inactive)
